How the values were obtained:
[1] = test system: interferon regulatory factor (IRF)3 activity; experiment: IRF3 reporter activity in THP-1 Dual cells (QUANTI-Luc); type: cell-based, Human; conditions: for IRF and NF-kB activation compared with 2.3cGAMP: THP-1 reporter cell line, FIG. 30
Description: (§1) In vitro evaluation of CDN-NP activity: Human monocyte THP-1 Dual™ cells, THP-1 Dual™ KO-STING cells, RAW-Lucia™ ISG cells and RAW-Lucia™ ISG KO-STING cells were seeded in 96-well plates at 1×10^5 cells per well and incubated with the CDN-NP or free CDN at CDN concentrations ranging from 0-500 nM. At 24 h post treatment, interferon regulatory factor (IRF)3 activity was examined using the QUANTI-Luc™ reagent (InvivoGen) and NF-κB activity (only THP-1 Dual™ cells) was determined using the QUANTI-Blue™ reagent (InvivoGen) according to the manufacturer's instructions.

IRF response = experiment: IRF reporter response in RAW-Lucia ISG cells; type: cell-based, murine
Description: as §1

[2] = test system: bone-marrow derived macrophages (BMDMs); experiment: Primary immune cell activation, flow cytometry; type: cell-based, C57BL/6 mice
Description: BMDC and BMDM isolation: The tibias and femurs of female wild type or goldenticket C57BL/6 mice (aged 8-12 weeks) were isolated and flushed to harvest bone marrow and to obtain a progenitor cell population. To generate BMDMs, 4-6×10^6 bone marrow cells were cultured in non-tissue culture treated T175 flasks with 25 mL of DMEM/F12 supplemented with 10% (v/v) FBS, 1% (v/v) P/S, 5% (v/v) GlutaMAX and recombinant murine macrophage-colony-stimulating factor (M-CSF, 20 ng/mL). The flasks were supplemented with additional medium on day 3 and day 6. To generate BMDCs, 2×10^6 bone marrow cells were added to non-tissue culture-treated petri dishes and cultured in 10 mL of RPMI-1640 supplemented with 10% (v/v) FBS, 1% (v/v) and recombinant murine granulocyte-macrophage colony-stimulating factor (GM-CSF, 20 ng/mL), 10 mL more of which was added on day 3. […]
Assessment of primary immune cell activation: BMDCs or BMDMs were seeded in 24-well plates at 2×10^5 cells per well and incubated with the CDN-NP or free CDN at equal CDN concentrations ranging from 1-100 nM. […] After 24 hours, the supernatant was removed and cells were then collected, washed, stained, fixed, and analyzed by flow cytometry. […] In addition, IFN-0, IL-6, and TNF-α were analyzed from the supernatant using a custom Legendplex™ panel (BioLegend) as per the manufacturer's instructions.

[3] = Pharmacokinetics in plasma after i.v. administration (LC-MS-MS and fluorescence); type: in vivo, C57BL/6 mice; conditions: 15 min after i.v.
Description: Pharmacokinetics of CDN-NPs: Non-tumor bearing 6-8-week-old female C57BL/6 mice were injected i.v. (100 μL per mouse) with fluorescent CDN-NPs and whole blood was collected 0.25, 0.5, 1, 3, 6, and 24 h post injection in Eppendorf tubes containing heparin though submandibular bleed (for early time points) or cardiac puncture (for late time points). Plasma was obtained by centrifugation for 20 mins at 10000×g. Fluorescent CDN-NPs were quantified using a 640 nm excitation and 680 emission wavelength by plate reader and CDN was also quantified by LC-MS/MS.

B16-F10 tumors = experiment: In vivo therapeutic efficacy, B16-F10 melanoma; design: species or system mice; conditions: B16-F10, 0.5 μg CDN i.v. x3, 4 d apart
Description: In vivo therapeutic efficacy: B16-F10, 4T1, and CT-26 cells were injected subcutaneously into the right flank of 6-8-week-old female mice (of the appropriate background for the cell type) in 100 μL HBSS at densities of 5×10^5, 1×10^6, and 1×10^6 cells/injection, respectively. Approximately 7 days post tumor inoculation (˜50 mm^3), mice were subjected to intravenous injection (100 μL) of free CDN or CDN-NP at a CDN dose of 0.5 μg. Mice were injected 3 times with treatments spaced 4 d apart. Groups receiving checkpoint blockade were injected intraperitoneally 24 h post systemic administration with 100 μg anti-PD-1 (clone RMP1.14, Bio X Cell). The tumor size was measured every other day via caliper measurements and the tumor volume calculated using the equation V=L×W×H×(π/6). Body weight was measured contemporaneously with tumor volume.

[4] = test system: immune cell populations in the TME, tdLN, and spleen; experiment: Immunophenotyping by flow cytometry in B16-F10 tumor-bearing mice; type: in vivo, C57BL6/J mice
Description: Immunophenotyping analysis: Subcutaneous B16-F10 tumors were established in female C57BL6/J mice (6-8 weeks old), as previously described. The treatment groups were: PBS (untreated control), aPD-1 mAb, free CDN, free CDN with aPD-1 mAb, CDN-NPs, and CDN NPs with aPD-1 mAb. CDN formulations (free drug or NP, 0.5 μg CDN) were administered intravenously and aPD-1 mAb (100 μg) was administered intraperitoneally 24 h after CDN treatment. Dendritic cells and macrophages were assessed 48 h after treatment and T cells were analyzed 7 days post-treatment. Tumors were harvested, chopped, and digested in a solution of HBSS supplemented with collagenase I, II, and IV (100 ng/mL) and DNase I […] for 2 h at 37° C. TdLNs and spleens were harvested and mechanically dissociated. Single cell suspensions of tumors, tdLNs, and spleens were filtered through a 40 µm nylon cell strainer. Spleen and tumor cells were further treated with ACK Lysing Buffer (Gibco). Cells were washed, filtered through a 40 μm nylon cell strainer, and counted. For intracellular IFN-γ cytokine analysis, 1×10^6 cells were seeded in a 24-well plate in DMEM containing 10% (v/v) FBS and supplemented with PMA/ionomycin/Brefeldin A cocktail (BioLegend). After 4 h, the cells were washed and stained in 100 μL cell staining buffer (BioLegend). Intracellular staining was performed using an intracellular staining permeabilization wash buffer (BioLegend) The following anti-mouse antibodies were used for flow cytometry were purchased from BioLegend: CD45 APC-Cy7 (clone 30-F11), NK-1.1 BV710 (clone PK136), IFN-γ BV421 (clone XMG1.2), CD279 (PD-1) FITC (clone 29F.1A12), CD45 BV785 (clone 30-F11), CD11b BV421 (clone M1/70), Ly-6C APC-Cy7 (clone HK1.4), Ly-6G BV661 (clone 1A8), CD8a BV421 (clone 53-6.7), CD86 BV510 (clone GL-1), CD80 BV711 (clone 16-10A1), CD206 PE (clone C068C2), MHCII BV605 (clone M5/114.15.2), CD11c APC (clone N418), Siglec H PE (clone 551), and CD44 BV786 (clone IM7).
The following anti-mouse antibodies were purchased from BD Biosciences: CD3 BB700 (clone 17A2), CD4 BUV395 (clone GK1.5), CD8a BUV737 (clone 53-6.7), F4/80 BUV395 (clone T45-2342), CD103 BUV395 (clone M290), CD80 BUV737 (clone 16-10A1), ki67 BV510 (clone B56), CD69 BV605 (clone H1.2F3), and CD62L PE-CF594 (clone MEL-14). Live cells were gated using LIVE/DEAD™ (Thermo Fisher) aqua (cat. no. L34966), green (cat. no. L34970), or near-IR (cat. no. L34976). Stained cells were analyzed by flow cytometry using a BD LSRFortessa™ flow cytometer (BD Biosciences) and all data were analyzed using FlowJo software (FlowJo LLC).

[5] = tdLN, 7 d after single treatment

Row | SMILES | IRF and NF-kB activation compared with 2.3cGAMP [1] | EC50 ([1]; THP-1 Dual cells, 24 h, read-out: EC50 IRF3 activation) | EC50 (IRF response) | dose required to achieve the same degree of CD86 upregulation (15-fold) [2] | CDN (nM) in plasma [3] | CDN (nM) in plasma ([3]; listed as free CDNs) | tumor growth and survival (B16-F10 tumors) | CD86 expression on DCs in the spleen ([4]; 48 h after i.v., B16-F10) | proportion of CD4+ T cells secreting IFN-γ in the TME ([4]; 7 d, ex vivo restimulation) | proportion of CD8+ T cells secreting IFN-γ in the TME ([4]; 7 d, ex vivo restimulation) | CD4+ central memory T cells (TCM) [4, 5] | CD4+ effector memory T cells (TEM) [4, 5]
1 | CC(C)[C@H](NC(=O)CCCCCN1C(=O)C=CC1=O)C(=O)N[C@@H](C)C(=O)Nc1ccc(COC(=O)N(C)Cc2ccccc2C(=O)Nc2nc3c(ncn3[C@@H]3O[C@@H]4CO[P@@](=O)(S)O[C@H]5C[C@H](Oc6ccncn6)C[C@@H]5CO[P@@](=O)(S)O[C@@H]3[C@@H]4O)c(=O)[nH]2)cc1 [CDN-linker, 4-{[(2S)-2-{[(2S)-2-{[6-(2,5-Dioxo-2,5-dihydro-1H-pyrrol-1 yl)hexanoyl]amino}-3-methylbutanoyl]amino}propanoyl]amino}benzyl [2-({9[(2R,5R,7R,8R,10R,12aR,14R,15aS,16R)-16-hydroxy-2,10-dioxido-14-(pyrimidin-4-yloxy)-2,10-disulfanyldecahydro-5,8-methanocyclopenta[1][1,3,6,9,11,2,10]Pentaoxadiphosphacyclotetradecin-7-yl]-6-oxo-6,9-dihydro-1H-purin-2-yl}carbamoyl)benzyl]methylcarbamate] | higher IRF and NF-kB activation than 2.3cGAMP |  |  |  |  |  |  |  |  |  |  | 
2 | Nc1nc2c(ncn2[C@@H]2O[C@@H]3CO[P@@](=O)(S)O[C@H]4C[C@H](Oc5ccncn5)C[C@@H]4CO[P@@](=O)(S)O[C@@H]2[C@@H]3O)c(=O)[nH]1 [free CDN, 2-Amino-9-[(2R,5R,7R,8R,10R,12aR,14R,15aS,16R)-16-hydroxy-2,10-dioxido 14-(pyrimidin-4-yloxy)-2,10-disulfanyldecahydro-5,8 methanocyclopenta[1][1,3,6,9,11,2,10]pentaoxadiphosphacyclotetradecin-7-yl]-1,9-dihydro-6H-purin-6-one] | higher IRF and NF-kB activation than 2.3cGAMP | 1150 nM | > 1000 nM | 100 nM | <5 nM | < 5 nM | only a modest suppression of tumor growth and no increase in survival | 8.4±1.3% | 4.0±1.0% | 15.7±3.5% | 6.2±0.4% | 5.3±0.8%

Source: patent US20240398980A1, “NUCLEIC ACID-CONJUGATED POLYMERIC NANOPARTICLES AND METHODS OF USE” (The Brigham and Women's Hospital, Inc., priority 2021, published 2024)
